Where two headings read alike, the source gives them in different places.
Columns and labels:
[1] = biological target: T1, SynGUN4 (Synechocystis sp. PCC 6803, UniProt P72583); test: tryptophan fluorescence quenching; assay type: binding
T1 construct: gene sll0558; full length, residues 1-233; E. coli BL21(DE3)

[2] = biological target: T2, SynGUN4 (Synechocystis sp. PCC 6803, UniProt P72583, A219G); test: tryptophan fluorescence quenching; assay type: binding; details: read-out: dissociation constant
T2 construct: gene sll0558; full length, residues 1-233; E. coli BL21(DE3)
Excerpt: (§1) tryptophan fluorescence quenching on SynGUN4

[3] = biological target: T3, SynGUN4 (Synechocystis sp. PCC 6803, UniProt P72583, L222A); test: tryptophan fluorescence quenching; assay type: binding; details: read-out: dissociation constant
T3 construct: gene sll0558; full length, residues 1-233; E. coli BL21(DE3)
Excerpt: as §1

[4] = biological target: T4, SynGUN4 (Synechocystis sp. PCC 6803, UniProt P72583, R113A); test: tryptophan fluorescence quenching; assay type: binding; details: read-out: dissociation constant
T4 construct: gene sll0558; full length, residues 1-233; E. coli BL21(DE3)
Excerpt: as §1

[5] = biological target: T5, SynGUN4 (Synechocystis sp. PCC 6803, UniProt P72583, R214A); test: tryptophan fluorescence quenching; assay type: binding; details: read-out: dissociation constant
T5 construct: gene sll0558; full length, residues 1-233; E. coli BL21(DE3)
Excerpt: as §1

[6] = substrate: CC1=C(CCC(=O)O)c2cc3nc(cc4[nH]c(cc4C)cc4[nH]c(cc1n2)cc4C)C(C)=C3CCC(=O)O; test: Mg-Deutero formation by fluorescence; assay type: biochemical, Synechocystis sp. PCC 6803; details: no SynGUN4, 200 nM ChlH (methods: 0.1 μM ChlH), 20 mM MgCl2, 5 mM ATP, 50 mM MOPS-KOH pH 7.7, 1 mM DTT, 34 °C

T1 sequence (P72583 whole entry, the tested form may be a part): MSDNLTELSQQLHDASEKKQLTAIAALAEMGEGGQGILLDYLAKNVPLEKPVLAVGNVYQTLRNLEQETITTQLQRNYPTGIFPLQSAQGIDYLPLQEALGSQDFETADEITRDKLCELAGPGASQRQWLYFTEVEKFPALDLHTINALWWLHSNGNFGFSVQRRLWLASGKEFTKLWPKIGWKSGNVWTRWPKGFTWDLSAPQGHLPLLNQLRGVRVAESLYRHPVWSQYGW
T5 sequence (P72583 whole entry R214A, the tested form may be a part): as the sequence (P72583 whole entry, the tested form may be a part) above, with R214A counted along it
T3 sequence (P72583 whole entry L222A, the tested form may be a part): as the sequence (P72583 whole entry, the tested form may be a part) above, with L222A counted along it
T4 sequence (P72583 whole entry R113A, the tested form may be a part): as the sequence (P72583 whole entry, the tested form may be a part) above, with R113A counted along it
T2 sequence (P72583 whole entry A219G, the tested form may be a part): as the sequence (P72583 whole entry, the tested form may be a part) above, with A219G counted along it

`C=CC1=C(C)C2=NC1=Cc1c(C)c(C=C)c3[n]1[Co+][n]1c(c(C)c(CCC(=O)O)c1=CC1=NC(=C3)C(C)=C1CCC(=O)O)=C2` [Co-Proto] was tested, and the Kd ([1]; 50 mM MOPS-KOH pH 7.7, 150 mM NaCl, 1 mM DTT, one-site fit) was 2.67 ± 0.856 µM.

`CC1=C(CCC(=O)O)c2cc3nc(cc4[nH]c(cc4C)cc4[nH]c(cc1n2)cc4C)C(C)=C3CCC(=O)O` [Deutero] was tested, and the Kd [2] was 1.56 ± 0.459 µM, the Kd [3] was 6.61 ± 1.02 µM and the Kd [4] was 7.83 ± 1.99 µM. It also gave a Kd [5] of 10.9 ± 4.06 µM and a Kd [1] of 0.865 ± 0.146 µM.

B1: Synechocystis Mg-chelatase (ChlH, ChlD, ChlI) (Synechocystis sp. PCC 6803 substr. Kazusa) (protein)
chain: MFTNVKSTIRRVDPEALNGRQLLKVVYVVLESQYQSALSAAVRNINRTNSSLAIQLTGYLIEELRDPENYANFKHDVSEANLFIASLIFIEDLADKVVEAVTPYRDNLDAAIVFPSMPQVMRLNKMGSFSMAQLGQSKSAIAQFMKKRKENSSGAGFQDAMLKLLRTLPTVLKYLPVEKAQDARNFMLSFQYWLGGSQENLENFLLMLTDKYVYPDLGLDKLVNYQEPVVYPDMGIWHPLSMQMFENVKDYLEWYNQRPDISEDLKDPLAPCIGLIMQRTHLVTGDDAHYVGMVQELEAMGARVICVFSGGLDFSKPVNEYFWDKSVNGVEPLPIVDAVVSLTGFALVGGPARQDHPRAIESLKKLNRPYMCALPLVFQTTEEWEASDLGLHPIQVALQIAIPELDGAIEPIILSGRDGSTGRAIALQDRLEAIAQRAMKWANLRKKPKLDKKVAITVFSFPPDKGNVGTAAYLDVFGSIYEVMKGLQGNGYDVQDLPGSAKELMEAVIHDAQAQYNSPELNIAHRMSVEQYERLTPYSVRLEENWGKPPGHLNSDGQNLLIYGKEFGNVFIGVQPTFGYEGDPMRLLFSRSASPHHGFAAYYTYLNHIWKADAVLHFGTHGSLEFMPGKQMGMSGECYPDNLIGTIPNLYYYAANNPSEATIAKRRGYASTISYLTPPAENAGLYKGLQELNELIGSYQTLKDSGRGIQIVNTIMDQARICNLDQDVNLPDINAEEMDQGQRDTIVGSVYRKLMEIESRLLPCGLHVIGQPPSAEEAIATLVNIASLDREDEGIWALPTLIAESIGRNMEEIYRNSDKGILADVELLQDITLATRAAVAALVQEQINADGRVSFVSKLNFFKIGKKAPWVKSLCDSGYPNVNEEKLKPLFEYLEFCLEQVCADNEFGGLLQALEGEYVLPGPGGDPIRNPNVLPTGKNIHALDPQSIPTLAAVQSAKVVVDRLLERQRAENGGNYPETIASVLWGTDNIKTYGESLAQIMWMVGAKPVPDALGRVNKIELVPLEELGRPRIDVVVNCSGVFRDLFINQMNLLDQAVKLAAEADEPLEMNFVRKHALEQAEEMGIGVREAATRIFSNASGSYSSNVNLAVENSSWEDESELQEMYLKRKSFAFNSDNPGMMDQNRDMFERALKTADATFQNLDSSEISLTDVSHYFDSDPTKLISTLRDDGKAPAAYIADTTTANAQVRTLSETVRLDARTKLLNPKWYEGMLSHGYEGVRELSKRLVNTMGWSATAGAVDNWVYEDANSTFIKDEEMCKRLMDLNPNSFRRMVSTLLEVNGRGYWETSDENLERLQELYQEVEDRIEGVE
notes: with Magnesium-chelatase subunit ChlD; Magnesium-chelatase subunit ChlI
Work on B1 yielded a Km [6] of 7.46 ± 3.24 µM.

Reference: paper PMC1084334 (PLoS Biology, 2005)
